# Laboratory results taken from patent publication US4769384A, “Benzimidazole derivatives” (Nippon Shinyaku Co. Ltd., priority 1985, dated 1988).
# What was measured:
# Type in all cases: in vivo
# [1] = Anti-ulcer action: water-immersion stress ulcer in rats, oral (ulcer index); conditions: per os
# Procedure: Biological test method: Male rats of seven weeks of age were fasted for 24 hours and subjected to the test. The compound to be tested was suspended in a physiological saline solution containing 0.5% methylcellulose therein. 10 ml/kg of it was administered orally. The animals were immediately placed in a stress cage and immersed in a water bath of 23° C. to the depth of xiphoid. After 17 hours, they were sacrificed by cervical dislocation. The stomach was isolated therefrom. 7 ml of 2% formaline solution was introduced into the stomach for fixation. Then the stomach was cut along a greater curvature. The length of ulcer produced in fundus was measured under a microscope and the total ulcer length (in mm) was defined as an ulcer index per rat. Significance between mean ulcer indices was verified by the Student t-test.
# [2] = Acute toxicity, oral, mice; conditions: p.o., two weeks
# Procedure: (§1) Method: Male mice of six weeks of age or male rats of six weeks of age were fasted for 24 hours and subjected to the test.
# (§2) The compound to be tested was suspended in physiological saline solution containing 0.5% of methylcellulose. The suspension was administered orally.
# [3] = Acute toxicity, oral, rats; conditions: p.o., two weeks
# Procedure: as §1, §2
# [4] = 10 mg/kg (# dose of salt as the corresponding base)
# [5] = 20 mg/kg (# dose of salt as the corresponding base)
# [6] = 40 mg/kg (# dose of salt as the corresponding base)
# [7] = 80 mg/kg (# dose of salt as the corresponding base)
# [8] = 5 mg/kg (# dose of salt as the corresponding base), 5 mg/kg
# [9] = 10 mg/kg (# dose of salt as the corresponding base), 10 mg/kg
# [10] = 20 mg/kg (# dose of salt as the corresponding base), 20 mg/kg
# [11] = 5 mg/kg (# dose of salt as the corresponding base)
structure (smiles),measurement,setting,value
"COC(=O)c1cccc2nc(/C=C/c3ccc(OC)c(OC)c3)[nH]c12 [1 (phosphate), Methyl (E)-2-(3,4-dimethoxystyryl)benzimidazole-4-carboxylate]",Antiulcer Action (inhibition %) after 17 hours,[1]; [4],66%
same,Antiulcer Action (inhibition %) after 17 hours,[1]; [5],92%
same,Death Ratio,[2]; 2580 mg/kg,0/3
same,Death Ratio,[3]; 2580 mg/kg,0/4
"COC(=O)c1cccc2nc(/C=C/c3ccc(OC)cc3)[nH]c12 [Example 14, Methyl (E)-2-(4-methoxystyryl)benzimidazole-4-carboxylate]",Antiulcer Action (inhibition %) after 17 hours,[1]; 20 mg/kg,26%
same,Antiulcer Action (inhibition %) after 17 hours,[1]; 40 mg/kg,81%
same,Antiulcer Action (inhibition %) after 17 hours,[1]; 80 mg/kg,96%
same,Death Ratio,[3]; 2000 mg/kg,0/4
"C#CCOc1ccc(/C=C/c2nc3c(C(=O)OC)cccc3[nH]2)cc1 [Example 30, Methyl (E)-2-[4-(2-propynyloxy)styryl]benzimidazole-4-carboxylate phosphate]",Antiulcer Action (inhibition %) after 17 hours,[1]; [5],44%
same,Antiulcer Action (inhibition %) after 17 hours,[1]; [6],55%
same,Antiulcer Action (inhibition %) after 17 hours,[1]; [7],82%
"COC(=O)c1cccc2nc(/C=C/c3ccc(OC)c(OC)c3)[nH]c12 [Example 65, Methyl (E)-2-(3,4-dimethoxystyryl)benzimidazole-4-carboxylate d-10-camphorsulfonate]",Antiulcer Action (inhibition %) after 17 hours,[1]; [8],12%
same,Antiulcer Action (inhibition %) after 17 hours,[1]; [9],69%
same,Antiulcer Action (inhibition %) after 17 hours,[1]; [10],89%
same,Death Ratio,[2]; 3440 mg/kg,2/5
"CN/C(=N/CCSCc1nc[nH]c1C)NC#N [Cimetidine, reference compound]",Antiulcer Action (inhibition %) after 17 hours,[1]; 200 mg/kg,66%
"COC(=O)c1cccc2nc(/C=C/c3ccc(OC)c(OC)c3)[nH]c12.O=S(=O)(O)c1ccccc1 [Example 86, Methyl (E)-2-(3,4-dimethoxystyryl)benzimidazole-4-carboxylate benzenesulfonate]",Antiulcer Action (inhibition %) after 17 hours,[1]; [11],4%
same,Antiulcer Action (inhibition %) after 17 hours,[1]; [4],35%
same,Antiulcer Action (inhibition %) after 17 hours,[1]; [5],98%
same,Death Ratio,[3]; 2280 mg/kg,0/3
"CCOc1ccc(/C=C/c2nc3cccc(C(=O)OC)c3[nH]2)cc1OC.O=P(O)(O)O [Example 53, Methyl (E)-2-(4-ethoxy-3-methoxystyryl)benzimidazole-4-carboxylate phosphate]",Antiulcer Action (inhibition %) after 17 hours,[1]; [5],81%
same,Antiulcer Action (inhibition %) after 17 hours,[1]; [6],99%
same,Antiulcer Action (inhibition %) after 17 hours,[1]; [7],99%
"COC(=O)c1cccc2nc(/C=C/c3ccc(OC)c(OC)c3)[nH]c12 [Example 1, Methyl (E)-2-(3,4-dimethoxystyryl)benzimidazole-4-carboxylate]",Antiulcer Action (inhibition %) after 17 hours,[1]; 10 mg/kg,40%
same,Antiulcer Action (inhibition %) after 17 hours,[1]; 20 mg/kg,78%
same,Antiulcer Action (inhibition %) after 17 hours,[1]; 40 mg/kg,97%
same,Death Ratio,[2]; 2000 mg/kg,0/5
same,Death Ratio,[3]; 2000 mg/kg,1/4
"COC(=O)c1cccc2nc(/C=C/c3ccc(OC)c(OC)c3)[nH]c12.O=S(=O)(O)O [Example 67, Methyl (E)-2-(3,4-dimethoxystyryl)benzimidazole-4-carboxylate sulfate]",Antiulcer Action (inhibition %) after 17 hours,[1]; [11],48%
same,Antiulcer Action (inhibition %) after 17 hours,[1]; [4],72%
"COC(=O)c1cccc2nc(/C=C/c3ccc(OC)c(OC)c3)[nH]c12.Cl [Example 70, Methyl (E)-2-(3,4-dimethoxystyryl)benzimidazole-4-carboxylate hydrochloride]",Antiulcer Action (inhibition %) after 17 hours,[1]; [11],3%
same,Antiulcer Action (inhibition %) after 17 hours,[1]; [4],72%
same,Antiulcer Action (inhibition %) after 17 hours,[1]; [5],80%
same,Death Ratio,[2]; 2340 mg/kg,1/5
"Br.COC(=O)c1cccc2nc(/C=C/c3ccc(OC)c(OC)c3)[nH]c12 [Example 69, Methyl (E)-2-(3,4-dimethoxystyryl)benzimidazole-4-carboxylate hydrobromide]",Antiulcer Action (inhibition %) after 17 hours,[1]; [11],38%
same,Antiulcer Action (inhibition %) after 17 hours,[1]; [4],82%
same,Death Ratio,[2]; 2560 mg/kg,2/5
"COC(=O)c1cccc2[nH]c(/C=C/c3ccc(OC)c(OC)c3)nc12 [Example 66, Methyl (E)-2-(3,4-dimethoxystyryl)benzimidazole-4-carboxylate 1-naphthalenesulfonate]",Antiulcer Action (inhibition %) after 17 hours,[1]; [8],7%
same,Antiulcer Action (inhibition %) after 17 hours,[1]; [9],63%
same,Antiulcer Action (inhibition %) after 17 hours,[1]; [10],87%
"COC(=O)c1cccc2nc(/C=C/c3ccc(OC)cc3)[nH]c12.O=P(O)(O)O [Example 54, Methyl (E)-2-(4-methoxystyryl)benzimidazole-4-carboxylate phosphate]",Antiulcer Action (inhibition %) after 17 hours,[1]; [5],55%
same,Antiulcer Action (inhibition %) after 17 hours,[1]; [6],86%
same,Antiulcer Action (inhibition %) after 17 hours,[1]; [7],98%
same,Death Ratio,[3]; 2636 mg/kg,0/4
